In patent US20100285611A1, “PHOTOBLEACHING RESISTANT PH SENSITIVE DYE NANOREACTORS WITH DUAL WAVELENGTH EMISSION” (priority 2009, published 2010):
Read-outs that look alike come from different tables or passages of the source.

Columns and labels:
[1] = pH dependent fluorescence emission spectra of cSNARF-1 (modified Henderson-Hasselbalch analysis); type: physicochemical
Protocol: Absorption spectra were obtained using a UV Mini 1240 spectrophotometer (Shimadzu Scientific Instruments, Columbia, Md.) in a 1-cm path length quartz cuvette. The total concentration of encapsulated cSNARF-1 in the suspensions was determined at pH 7 using the extinction coefficient of 27,000 L-mol-1-cm-1 at the absorbance maximum of 548 nm. Fluorescence spectra were obtained using a Cary Eclipse fluorescence spectrophotometer (Varian, Walnut Creek, Calif.) with excitation wavelength of 514 nm and collecting emissions over the range of 550 nm to 750 nm at room temperature. […] The pH was adjusted using 0.1 N HCl or NaOH, starting from pH 7 to either the higher or lower limit of pH and back. All spectra were corrected for dilution.
A more quantitative analyses of these changes in fluorescence intensity may be carried out using the modified Henderson-Hasselbalch equation. For a dye with dual wavelength emissions, the ratio of fluorescence intensity over a given pH range elucidates the dye's pKa as:
where Ri is the fluorescence intensity ratio of the two wavelengths (582 nm and 635 nm) at pHi, Rmin and Rmax are the minimum and maximum limiting values of Ri, respectively. The value of I(A)/I(B) is obtained from the emission intensities at 635 nm for the limiting acidic, I(A), and basic, I(B), pH regions. In practice, to elucidate the pKa of each sample, first the pH1/2 value, at which (Ri−Rmin)=(Rmax−Ri) or R1/2=(½) (Rmax+Rmin) was determined to make the second term of the right hand side of equation equal to zero. The value of pH1/2 was then subtracted by log(I(A)/I(B)) to estimate the pKa value.
To estimate the pH1/2 and I(A)/I(B) from the experiment, the fluorescence intensity changes at 635 nm and 582 nm, and their ratios were plotted against the pH values as shown in FIG. 4B. For elucidation of both pH1/2 and I(A)/I(B), it is important to note that well defined limiting intensities at both extreme ends of acidic and basic pHs must be available. Furthermore, the spectral changes shown in each of FIG. 4A should have a well defined isoemissive point to assure that the integrity of spectral chromophores is maintained throughout the entire pH range. Once pH1/2, Rmin, Rmax, and I(A)/I(B) are determined, the value for “c” may be estimated from the least squares fit of the equation to the experimental results shown as filled circles in FIG. 4B.

[2] = at room temperature; cited from earlier work
[3] = Stopped flow kinetics of fluorescence response to pH change; type: physicochemical
Protocol: The time dependent response of cSNARF-1 solution and nanoreactors to the pH change was measured at 20° C. using an RX2000 Stopped-Flow Mixing Accessory (Applied Photophysics Limited, Leatherhead, UK) attached to the Cary Eclipse fluorescence spectrophotometer. The mixing time of this system is reported to be 8 msec, and the response time of Eclipse is 1 msec. To estimate the response time of the nanoreactors, they were first adjusted to pH 10 then mixed with a 50 mM phosphate buffer solution at pH 2. By exciting cSNARF-1 at 514 nm during this process, the pH-responsive fluorescence change at 582 nm was recorded.

[4] = Photobleaching under 300 W Xenon lamp; type: physicochemical; details: after 100 minutes; 300 W Xenon lamp 15 cm away; DI water pH 9; 30° C.; 640 nm
Protocol: cSNARF-1 in DI water at pH 9 and the nanoreactors in the same solvent was placed into covered 1 cm-path length quartz cuvettes and kept at 30° C. using a circulating water bath while being continuously exposed to the emission of a 300 W Xenon lamp placed 15 cm away. […] The fluorescence intensity at 640 nm was recorded at 5 or 10 minute intervals.

[5] = solvent Water, excitation 514 nm

With “5-(and-6)-Carboxy-seminaphthorhodafluor-1 [cSNARF-1]” the Acidic peak ([1]; solvent 1.5% IgG sln) was 584 nm, the Basic peak ([1]; solvent 1.5% IgG sln) was 633 nm and the c ([1]; solvent 1.5% IgG sln) was −0.78. For the same substance, the “log{I[A]/I[B]}” value ([1]; solvent 1.5% IgG sln) was −0.47, the “pH 1/2” value ([1]; solvent 1.5% IgG sln) was 7.25 and the pKa ([1]; solvent 1.5% IgG sln) was 7.72. The pKa ([1]; solvent Water) was 7.46, the “log{I[A]/I[B]}” value ([1]; solvent Water, emission intensities at 635 nm, limiting acidic and basic pH) was −0.31 and the Acidic peak [1, 5] was 581 nm. The Basic peak [1, 5] was 633 nm, the “pH 1/2” value ([1]; solvent Water, excitation 514 nm, room temperature) was 7.15 and the c ([1]; solvent Water, least squares fit of Equation 1) was −1.17. The pKa [2] was 7.5, the “time for change in fluorescence intensity (67%)” value ([3]; pH change from pH 10 to 5, average of three traces (FIG. 7 legend)) was 175 ms and the “time for 65% change in fluorescence intensity (t65%)” value ([3]; response to pH change, average of three traces, 20° C., excitation 514 nm, emission 582 nm) was 175 ms. For the same substance, the “loss of fluorescence intensity” value [4] was 30%.
